Results on three compounds are retold here after patent US10550096B2, “Tetrahydroisoquinolines as PRMT5 inhibitors” (CTXT PTY LTD, priority 2016, dated 2020).

Usually IC50 stands for the point on the concentration scale where inhibition reaches its midpoint. Read a low IC50 as higher potency.

The structures appear in SMILES notation. Where a name gives a salt, the structure may show the parent alone.

The target in test [1] is Full-length PRMT5 enzyme co-expressed with His6-MEP50 (Homo sapiens (Human), UniProt O14744). Nature of the test: PRMT5 Biochemical Assay. As to conditions: histone H4 derived peptide substrate 1 μM, 1 μM S-Adenosyl methionine, 4 hours at 37 degree Celsius, Transcreener EPIGEN fluorescence polarisation. As for the experimental part:
Compounds of the invention may be tested for in vitro activity in the following assay:
A histone H4 derived peptide is used as substrate (amino acid sequence: […]NH2). Full-length PRMT5 enzyme (NCBI Reference sequence NP_006100.2) was co-expressed with His6-MEP50 in insect cells and purified via Nickel immobilized metal affinity and gel filtration chromatography (“the enzyme”).
The 6 μL reactions are run in Greiner brand black 384-well low volume assay plates. All reactions contained assay buffer (phosphate buffered saline, 0.01% (v/v) Tween-20, 0.01% (w/v) albumin from chicken egg white, 1 mM Dithiothreitol, 1 μM peptide substrate, 1 μM S-Adenosyl methionine, and 15 ng/reaction enzyme, with the enzyme being omitted from negative control reactions. Compounds were added in a volume of 100 nL from dilution series prepared in DMSO, positive and negative control reactions receiving the same volume DMSO without compound. The plates were sealed with adhesive seals and incubated for 4 hours at 37 degree Celsius. Reaction progress was measured using the Transcreener™ EPIGEN methyltransferase assay (BellBrook Labs, Madison, Wis.) as recommended by the manufacturer. To each reaction 2 μL detection mix were added, containing coupling enzymes, fluorescence polarisation tracer, and AMP antibody. Plates were incubated for 90 minutes before being read on a PerkinElmer EnVision™ plate reader in fluorescence polarisation mode. IC50 values were obtained from the raw readings by calculating percent inhibition (% I) for each reaction relative to controls on the same plate (% I=(I−CN)/(CP−CN) where CN/CP are the averages of the negative/positive reactions, respectively), then fitting the % I data vs. compound concentration [I] to % I=(A+((B−A)/(1+((C/[I])^D)))) where A is the lower asymptote, B is the upper asymptote, C is the IC50 value, and D is the slope.
(In fluorescence polarisation assays a small probe gives low polarisation when free and higher when bound to something large.)

Test [2] concerns TE11 cells. Nature of the test: PRMT5 Biomarker Assay (symmetrical dimethylation of arginine, Histone H4 Arginine 3). It is filed as cell-based. To be noted: Homo sapiens, TE-11; TE11 cell line, 72 hours incubation, Di-Methyl Histone H4 Arginine 3 level, high content imaging. Here is the method: Compounds of the invention may be tested for potency to inhibit symmetrical dimethylation of arginine in the following assay:
The cell line TE11 was seeded at a density of 6,000 cells per well in 96 well optical quality tissue culture plates in DME medium and 10% foetal bovine serum, and allowed to adhere for 5 hours under standard culture conditions (37 degree Celsius, 5% CO2). Compound dilutions prepared in DMSO were added to the medium, with negative control wells reserved for treatment with DMSO only and maximum inhibition controls receiving a potent PRMT5 inhibitor compound at 1 μM concentration. After incubation for 72 hours, the cells were fixed with 3.7% formaldehyde in PBS for 30 minutes at room temperature, washed with phosphate buffer saline and blocked with Odyssey blocking buffer (LI-COR, Lincoln, Nebr.). Rabbit anti-Di-Methyl Histone H4 Arginine 3 specific antibody (Epigentek) in Odyssey blocking buffer was added and incubated for 14 hours at 4 degree Celsius. […] Plates were washed and read on a PerkinElmer Envision 2103 in fluorescence intensity scanning mode (24 scans across the well area). […] Using a Columbus image analysis pipeline, individual nuclei were located by Hoechst 33342 stain and the methylation level was calculated from the Alexa647-related intensity in the same area. […]

Chain of Full-length PRMT5 enzyme co-expressed with His6-MEP50 (O14744 whole entry): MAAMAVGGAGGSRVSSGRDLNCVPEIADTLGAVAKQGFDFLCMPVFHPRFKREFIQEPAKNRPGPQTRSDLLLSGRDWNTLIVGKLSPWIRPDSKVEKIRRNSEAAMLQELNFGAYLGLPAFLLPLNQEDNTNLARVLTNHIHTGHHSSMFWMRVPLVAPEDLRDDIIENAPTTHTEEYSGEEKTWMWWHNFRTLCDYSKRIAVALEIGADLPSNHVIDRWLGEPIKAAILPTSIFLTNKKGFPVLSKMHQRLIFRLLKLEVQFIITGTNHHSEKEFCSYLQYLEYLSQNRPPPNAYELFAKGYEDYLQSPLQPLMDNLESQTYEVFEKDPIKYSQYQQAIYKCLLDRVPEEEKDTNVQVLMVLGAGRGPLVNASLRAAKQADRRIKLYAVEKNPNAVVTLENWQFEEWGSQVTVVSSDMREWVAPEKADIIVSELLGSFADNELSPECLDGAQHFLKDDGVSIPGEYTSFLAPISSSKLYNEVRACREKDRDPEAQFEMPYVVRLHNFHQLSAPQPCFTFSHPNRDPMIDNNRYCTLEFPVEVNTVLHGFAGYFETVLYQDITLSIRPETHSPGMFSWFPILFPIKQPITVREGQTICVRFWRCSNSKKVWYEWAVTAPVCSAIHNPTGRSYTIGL
Chain of Full-length PRMT5 enzyme co-expressed with His6-MEP50 (Q9BQA1 whole entry partner): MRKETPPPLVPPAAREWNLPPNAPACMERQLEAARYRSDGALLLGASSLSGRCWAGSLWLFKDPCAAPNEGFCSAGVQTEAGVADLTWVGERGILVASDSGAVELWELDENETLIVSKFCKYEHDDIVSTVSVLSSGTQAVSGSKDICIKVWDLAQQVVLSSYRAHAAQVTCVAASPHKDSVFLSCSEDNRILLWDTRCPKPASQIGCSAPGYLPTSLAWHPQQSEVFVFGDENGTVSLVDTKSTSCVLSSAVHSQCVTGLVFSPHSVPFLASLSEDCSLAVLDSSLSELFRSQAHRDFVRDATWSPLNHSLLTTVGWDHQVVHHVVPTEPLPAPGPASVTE

Regarding `O=C(c1ccc2c(=O)n(C[C@@H](O)[C@@H]3Cc4ccccc4CN3)ccc2c1)N1C2CCC1COC2` [Example 1, 6-(3-Oxa-8-azabicyclo[3.2.1]octane-8-carbonyl)-2-((R)-2-hydroxy-2-((S)-1,2,3,4-tetrahydroisoquinolin-3-yl)ethyl)isoquinolin-1(2H)-one hydrochloride], the values for the half-maximal inhibitory concentration (IC50) in test [1] and in test [2] were 533 nM and 430 nM, respectively.

Take `Cc1nn(C[C@@H](O)[C@@H]2Cc3ccccc3CN2)c(=O)c2ccccc12` [Example 2, 2-((R)-2-Hydroxy-2-((S)-1,2,3,4-tetrahydroisoquinolin-3-yl)ethyl)-4-methylphthalazin-1(2H)-one hydrochloride]: the IC50 in test [1] is 7320 nM.

Consider `CCc1nn(C[C@@H](O)[C@@H]2Cc3ccccc3CN2)c(=O)c2ccc(C(=O)N3C4CCC3COC4)cc12` [Example 3, 6-(3-Oxa-8-azabicyclo[3.2.1]octane-8-carbonyl)-4-ethyl-2-((R)-2-hydroxy-2-((S)-1,2,3,4-tetrahydroisoquinolin-3-yl)ethyl)phthalazin-1(2H)-one hydrochloride], for which the IC50 in test [1] came to 39 nM; in test [2], 1 nM.
